The values that follow come from publication PMC2692652 (Biochemistry, 2009).

For assay [1], the target named is T1, H447A M. tb PGDH (Mycobacterium tuberculosis, UniProt P9WNX3, H446A). It is filed as biochemical. Particulars: pH 7.5.
The target of assay [2] is T2, R446A M. tb PGDH (Mycobacterium tuberculosis, UniProt P9WNX3, R445A). It is filed as biochemical. To be noted: pH 7.5.
In assay [3] the target is R446A-R501A-K439A M. tb PGDH (Mycobacterium tuberculosis, UniProt P9WNX3, K438A/R445A/R500A). The assay is classed as biochemical. To be noted: pH 7.5.
Assay [4] deals with T3, R451A-R501A-K439A M. tb PGDH (Mycobacterium tuberculosis, UniProt P9WNX3, K438A/R450A/R500A). The assay is classed as biochemical.
The target in assay [5] is T4, K439A M. tb PGDH (Mycobacterium tuberculosis, UniProt P9WNX3, K438A). It is filed as biochemical. Particulars: pH 7.5.
A further assay concerns the target R451A M. tb PGDH (Mycobacterium tuberculosis, UniProt P9WNX3, R450A). It is filed as biochemical. Particulars: pH 7.5.
Assay [6] concerns the target T5, R501A M. tb PGDH (Mycobacterium tuberculosis, UniProt P9WNX3, R500A). The assay is classed as biochemical. To be noted: pH 7.5.
The target of assay [7] is T6, W29F M. tb PGDH (Mycobacterium tuberculosis, UniProt P9WNX3, W28F). It is filed as binding. Particulars: pH 7.5.
For assay [8], the target named is T6, W29F M. tb PGDH. The assay is classed as biochemical. Particulars: pH 7.5.
Assay [9] addresses T7, W327F M. tb PGDH (Mycobacterium tuberculosis, UniProt P9WNX3, W326F). The assay is classed as binding. To be noted: pH 7.5.
Assay [10] has as its target T3, R451A-R501A-K439A M. tb PGDH. It is filed as biochemical. To be noted: pH 7.5.
The target is the same in assay [11]. It is filed as binding. Particulars: pH 7.5.
Assay [12] has as its target T7, W327F M. tb PGDH. The assay is classed as biochemical. Particulars: pH 7.5.
Assay [13] relates to native and mutant M. tb PGDH. Kind of assay: NADH dependence of steady state activity, summary over enzymes. It is filed as biochemical, Mycobacterium tuberculosis.
In assay [14] the target is T4, K439A M. tb PGDH. Particulars: read-out: Ki, HPAP (substrate inhibition); cited from earlier work.
Assay [15] concerns the target T1, H447A M. tb PGDH. Particulars: read-out: Ki, HPAP (substrate inhibition); cited from earlier work.
The target in assay [16] is T2, R446A M. tb PGDH. Particulars: read-out: Ki, HPAP (substrate inhibition); cited from earlier work.
Assay [17] has as its target T5, R501A M. tb PGDH. Particulars: read-out: Ki, HPAP (substrate inhibition); cited from earlier work.

Turning to `N[C@@H](CO)C(=O)O` [L-serine], the “n (Hill coefficient), serine inhibition, High Substrate” value was found to be 1.5 ± 0.1 at H447A M. tb PGDH [1]; 0.9 ± 0.1 on R446A M. tb PGDH [2]; 1.2 ± 0.1 on K439A M. tb PGDH [5]; 1.7 ± 0.3 at R451A M. tb PGDH; 1.7 ± 0.1 on R501A M. tb PGDH [6]. The “n (Hill coefficient), serine inhibition, Peak Substrate” value on H447A M. tb PGDH [1] is reported as 1.7 ± 0.1; on R446A M. tb PGDH [2], 1.3 ± 0.1; in assay [3] it was 1.0 ± 0.1; on K439A M. tb PGDH [5], 1.2 ± 0.1; on R451A M. tb PGDH, 1.6 ± 0.1; on R501A M. tb PGDH [6], 1.5 ± 0.1. In addition, in assay [4], the “Inhibition of catalytic activity by serine” value was “unable to be inhibited”.
As for NADH, the “K0.5, FRET vs NADH” value was 1.9 ± 0.1 µM at W29F M. tb PGDH [7], 3.0 ± 0.3 µM at W327F M. tb PGDH [9] and 3.6 ± 0.1 µM in assay [11]. The results for the “n (Hill coefficient), FRET vs NADH” value (on W29F M. tb PGDH [7]; on W327F M. tb PGDH [9]; in assay [11]) were 1.2 ± 0.1, 1.7 ± 0.3 and 2.3 ± 0.2, respectively. The “K0.5, Activity vs NADH” value on W29F M. tb PGDH [8] came out at 99 ± 2 µM; in assay [10], 83 ± 13 µM; at W327F M. tb PGDH [12] it was 89 ± 4 µM. The results for the “n (Hill coefficient), Activity vs NADH” value (on W29F M. tb PGDH [8]; in assay [10]; on W327F M. tb PGDH [12]) were 2.2 ± 0.1, 1.5 ± 0.2 and 2.0 ± 0.1, respectively. In addition, in assay [13], the “K0.5 for NADH for activity” value lay within 80 to 100 mM.
For hydroxypyruvic acid phosphate [HPAP], the Ki is 54 ± 4 µM at K439A M. tb PGDH [14], 870 ± 50 µM on H447A M. tb PGDH [15], 289 ± 15 µM at R446A M. tb PGDH [16] and 1020 ± 30 µM on R501A M. tb PGDH [17].
